Test results reported in patent US20210330611A1, “THERAPY FOR NEUROLOGICAL DISEASES/DISORDERS” (priority 2020, published 2021).
Where two headings read alike, the source gives them in different places.

Assays:
[1] = system: fibrin- and LPS-induced microglia activation; assay: cells; format: cell-based, rat; conditions: for inhibition at 10 µM: Rattus norvegicus
chronic NOD MOG35-55 EAE = assay: Chronic MOG35-55 EAE in NOD mice, clinical scores; format: in vivo, mouse; conditions: therapeutic, daily from day 80 to day 113, FIG. 8b
GGT [2] = assay: GGT activity in spinal cord of MOG35-55 EAE mice; format: in vivo, mouse; conditions: FIG. 7e
Description: GGT activity assay. GGT activity was measured using the MaxDiscovery gamma-Glutamyl Transferase (GGT) Enzymatic Assay Kit (Bioo Scientific) according to the manufacturer's protocol. […]. For in vivo GGT activity assay, spinal cord tissues from the onset of MOG35-55 EAE or LPS-injected substantia nigra area at 12 h were prepared. Tissues were homogenized in 0.1 M Tris-HCl and centrifuged at 13,000 g for 30 min at 4° C. The supernatant was collected and subsequently assessed for GGT activity. The absorbance at 405 nm was detected with a SpectraMax M5 microplate reader (Molecular Devices) with SoftMax Pro 5.2 software (Phoenix Technologies Ltd.). The GGT activity in IU/1 was calculated following the manufacturer's protocol by multiplying the average increase in absorbance at 405 nm over 10 min GGT activity was also measured using a fluorescent probe, ProteoGREEN-gGlu (Goryo Chemical, Hokkaido, Japan), according to the manufacturer's protocol. Cultured BMDMs were plated on 96-well, black μ-clear-bottom microtiter plates (Greiner Bio-One) pre-coated with 25 μg/ml fibrin. […] The fluorescence intensity (excitation/emission filter pairs of 488 nm/520 nm) was measured using a SpectraMax M5 microplate reader (Molecular Devices) with SoftMax Pro 5.2 software (Phoenix Technologies).

mouse BMDMs = assay: ROS production (DHE) in fibrin-stimulated mouse BMDMs; format: cell-based; conditions: fibrin 24 h, 5 μM inhibitor, FIG. 6b
Description: Bone marrow—derived macrophage cultures. […]. In brief, bone-marrow cells were isolated from tibia and femur of C57BL/6 mice, Ggt1^+/+ mice or Ggt1^dwg/dwg mice and cultured in RPMI-1640 medium supplemented with 10% FBS, 1% penicillin-streptomycin (Corning), and 10 ng/ml murine M-CSF (14-8983-80, Thermo Fisher Scientific). On days 6-7, adherent BMDMs were harvested by adding PBS with 5 mM EDTA to the plates and used for assays.
Human macrophage cultures. Human peripheral blood mononuclear cells (PBMCs) were purchased from AllCells, LLC (Alameda, Calif.). To differentiate PBMC into monocyte-derived macrophages, 2×10^6 PBMC/mL were plated in RPMI-1640 media supplemented with 10% FBS, 1% penicillin-streptomycin (Corning), and 50 ng/ml human M-CSF (300-25, Peprotech) in tissue-culture treated dishes (Corning). After 24 h, non-adherent cells were removed, and adherent cells were cultivated for 7-8 additional days at 37° C. in 5% CO2 to promote their full differentiation into macrophages. Oxidant detection with DHE. Intracellular concentrations of ROS were measured using dihydroethidium (DHE) as described (9). […] The DHE fluorescence was detected at an excitation/emission wavelength of 518 nm/605 nm using a SpectraMax M5 microplate reader (Molecular Devices) with SoftMax Pro 5.2 software (Phoenix Technologies Ltd.).

primary rat microglia = assay: Cell toxicity (dead cells, size <150 μm2) in coated fibrin (cFib) assay;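 for Fibrin % cell toxicity: share of dead cells sized under 150 µm2 at 10 µM in fibrin-stimulated microglia HTS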
GGT [3] = assay: GGT activity in substantia nigra after stereotactic LPS injection; format: in vivo, mouse; conditions: 5 mg/kg i.p., 12 h after LPS, FIG. 15a
Description: Stereotactic LPS injection and drug treatment. Mice were anaesthetized with isoflurane and placed in a stereotactic apparatus (David Kopf Instruments). LPS (Sigma-Aldrich) was dissolved in endotoxin-free distilled water (HyClone) and was diluted to 1 μg/ml with PBS. LPS (2 μl of 1 μg/ml) or PBS was slowly injected (0.3 μl/min) using a 10-μl Hamilton syringe attached to a 33-G needle into the substantia nigra at coordinates (anteroposterior, 3.0 mm; mediolateral, 1.3 mm; dorsoventral, 4.7 mm from the bregma, according to Paxinos and Watson) Animals received acivicin (5 mg/kg) or saline intraperitoneally beginning 5 days before LPS injection and for 7 days after LPS injection. After 12 h of the LPS injection, the substantia nigra area was immediately collected on ice and kept at −80° C. for later analysis of GGT activity. After 7 d of the LPS injection, mice were perfused with 4% PFA, and the brains were post-fixed in 4% PFA overnight at 4° C. […] Images were acquired with all-in-one BZ-X700 fluorescence microscope. Images were quantified using NIH ImageJ (version 1.50) by blinded observers.

naïve CD4+ T cells = assay: Non-antigen-specific T-cell proliferation (anti-CD3/CD28); format: cell-based, mouse; conditions: 5, 0.5 or 0.05 μM, FIG. 14G, H
Description: T-cell proliferation assay. For antigen-specific T cell proliferation, näive CD4+ T cells were magnetically sorted from the TCR-transgenic 2D2 mice using naïve CD4+ T cell isolation kits (Miltenyi Biotec). […]. For non-antigen-specific T cell proliferation, naïve CD4^+ T cells were treated with acivicin and stimulated with mouse T-activator CD3/CD28 Dynabeads (Thermo Fisher Scientific) for 3 d. Cells were then fixed, permeabilized, and stained with FITC-conjugated anti-BrdU (BrdU Flow Kits, BD Biosciences).

[4] = format: in vivo, mouse; conditions: healthy mice, 10 days, FIG. 12
Description: Blood sampling and hematological analysis. Hematological analysis was carried out for mice treated with saline or acivicin for 10 days. Blood samples were collected from the heart of each anesthetized mouse via cardiac puncture. The complete blood cell counts were measured with an automated blood count analyzer (Hemavet, Drew Scientific Inc).

SMILES: N[C@H](C(=O)O)[C@@H]1CC(Cl)=NO1 [Acivicin, (2S)-2-amino-2-[(5S)-3-chloro-4,5-dihydro-1,2-oxazol-5-yl] acetic acid]
- Quadrant (FIG. 5b) ([1]; HTS of 1907 compounds, quadrant by fibrin and LPS inhibition): Q2
- inhibition at 10 µM ([1]; Microglia, HTS hit classification, read-out: Hit): > 50%
- inhibition at 10 µM ([1]; hit classification in microglia HTS, read-out: Cherry-picked Hit (Suppl. Table 7)): > 50%
- Quadrant (FIG. 5b) ([1]; Table 1, screen at 10 μM): Q2
- Quadrant (FIG. 5b) ([1]; Table 2, screen at 10 μM): Q2
- Activity ([1]; Table 7, fib = fibrin, LPS, tox = toxicity): fib/LPS
- Quadrant (FIG. 5b) ([1]; quadrant by fibrin and LPS inhibition in HTS of 1907 compounds): Q2
- progression, clinical signs (chronic NOD MOG35-55 EAE): suppressed progression
- GGT activity in the EAE spinal cord (GGT [2]): decreased
- ROS generation (DHE) in mouse macrophages (mouse BMDMs): decreased
- cell toxicity in microglia dose response (primary rat microglia; <20 μM, FIG. 6a): without cell toxicity
- Fibrin % cell toxicity (primary rat microglia; primary microglia HTS, fibrin stimulation, decreased size (<150 μm^2) as marker of toxicity): 2%
- GGT activity in SN after LPS injection (GGT [3]): blocked
- T cell proliferation (BrdU) without APCs, anti-CD3 and anti-CD28 (naïve CD4+ T cells): only in the presence of APCs
- total cell blood count in vivo [4]: did not affect
